# Source: publication PMC10561253, “2-NBDG Uptake in Gossypium hirsutum in vitro ovules: exploring tissue-specific accumulation and its impact on hexokinase-mediated glycolysis regulation” (Frontiers in Plant Science, 2023)
# Test system: T1, GhHxk9
# T1 construct: codon-optimized synthetic gene, E. coli BL21(DE3), pET-28-14His-bdSumo, tag cut off by bdSENP1, tagless wild-type; 51 kDa; printed residues: L398-K404 TLKDGEK, S132-R141 SEGLHFSPDR
# Assay: coupled assay with E. coli glucose-6-phosphate dehydrogenase, absorbance at […] nm
# Format: biochemical, Gossypium hirsutum
# Conditions: 1 mM ATP, 10 mM MgCl2, 1 mM NADP+, 100 mM Tris pH 7.5, 30 °C; read-out: apparent Km
structure (smiles),measurement,value
OC[C@H]1OC(O)[C@H](O)[C@@H](O)[C@@H]1O (stereo partly drawn) [D-glucose],Km,37 ± 19.8 µM
